Results on 7 molecules are retold here after article PMC11009625, “Antibiotic class with potent in vivo activity targeting lipopolysaccharide synthesis in Gram-negative bacteria” (Proceedings of the National Academy of Sciences of the …, 2024).

One data set concerns E. coli ATCC 25922. The data set can be described thus: MIC (CLSI broth microdilution), wild-type E. coli. As to conditions: Escherichia coli, ATCC25922. Format: cell-based. As to the method:
(§1) Minimum inhibitory concentration (MIC) values were determined according to the Clinical Laboratory Standards Institute guidelines. Frequency of resistance was determined by plating ~5 × 10^8 bacterial cells on agar-solidified media plates containing test compound at concentrations corresponding to four times the measured solid-media MIC of the strains. Colonies were counted after 24 h, restreaked onto media containing the same concentration of compound, and the MIC remeasured against the assayed compound. Genomic DNA from isolated clones was sequenced by paired-end sequencing on an Illumina MiSeq device. Complete experimental details available in SI Appendix. […]
(§2) Minimum inhibitory concentration (MIC) determination. Broth microdilution and agar dilution
(§3) MIC assays were conducted according to CLSI guidelines (M07-2012). Appropriate inoculation
(§4) suspension density was assessed using a Sensititre Nephelometer with a Sensititre 0.5
McFarland Standard. […]

Data set [1] relates to E. coli ATCC 25922 ΔtolC efflux mutant. Kind of data set: MIC, E. coli efflux mutant. Format: cell-based. As to the method:
as §1, §2, §3

Another data set relates to K. pneumoniae ATCC 13883. Kind of data set: MIC, K. pneumoniae, with and without 50% human serum. Format: cell-based. As to the method: as §1, §2, §3, §4
McFarland Standard. Serum MICs were conducted in 50% heat-inactivated pooled human

Another data set can be described thus: in vitro. Format: cell-based. As to the method:
Minimum inhibitory concentration (MIC) determination. Broth microdilution and agar dilution MIC assays were conducted according to CLSI guidelines (M07-2012). Appropriate inoculation suspension density was assessed using a Sensititre Nephelometer with a Sensititre 0.5 McFarland Standard. Serum MICs were conducted in 50% heat-inactivated pooled human serum (Sigma-Aldrich). Serum was heated to 56 °C for one hour and then filtered using a 0.2 µm […]
Strain construction. The efflux-defective P. mirabilis strain EN1490 was constructed using EZ-Tn5 <KAN-2> Transposome mutagenesis with TypeOne Restriction Inhibitor. Approximately 3000 independent clones were screened for increased susceptibility to chloramphenicol (8 mg/L), yielding 2 independent clones with insertions in the gene tolC. […]

The subject of another data set is HepG2 cells. Kind of data set: HepG2 cytotoxicity (72 h). In kind it is cell-based. On the procedure: (§5) Thermodynamic solubility was assessed by dissolving 2 to 3 mg of test compound to equilibrium in 100 mM KPO4-buffer, pH 7.4. The metabolic stability assay was performed in the presence of human and mouse liver microsomes by measurement of test compounds disappearance over time (60 min). The plasma protein binding assay, including stability estimation, was performed using the RED devices (Thermo Fisher Scientific) in the presence of human and mouse plasma. All samples from the in vitro ADME studies were quantified by liquid chromatography-triple quadrupole mass spectrometry (LC–MS/MS). The assays were performed as previously described ([36]) and the details are available in SI Appendix. Cytotoxicity was assessed by incubation of test compounds in the presence of HepG2 cells for 72 h as previously described ([37]).

Data set [2] is described as follows: Metabolic stability in mouse liver microsomes. Format: in vitro ADME. As to conditions: pH 7.4. On the procedure:
as §5, with “([37]). […]” for “([37]).”
The plate is then sealed, centrifuged and the supernatant is analysed by liquid
chromatography coupled to triple quadrupole mass spectrometry (LC-MS/MS).
Metabolic stability in the presence of human and animal liver microsomes. Metabolic stability
was determined in 0.5 mg/ml human or animal liver microsomes at a compound concentration
of 1 μM in 100 mM KPO4 buffer pH 7.4 in a total incubation volume of 500 μl. The reaction was
initiated by addition of 1 mM NADPH. At various incubation times, i.e. at 0, 5, 10, 20, 40 and 60
min, a sample was withdrawn from the incubation and the reaction was terminated by addition
of cold acetonitrile with warfarin as an internal standard. […]
Liquid chromatography coupled to triple quadrupole mass spectrometry (LC-MS/MS). The test
compounds were optimized on a Waters Acquity UPLC XEVO TQ-S micro system (Waters Corp.)
operating in multiple reaction monitoring (MRM) mode with positive or negative electrospray
ionization. Compounds were optimized by using the QuanOptimize software (Waters Corp.).
For chromatographic separation, a C18 BEH 1.7 µm column was used, with a general gradient of
1% to 90% of mobile phase B over a total running time of 2 min. Mobile phase A consisted of
5% acetonitrile and 0.1% formic acid in purified water, and mobile phase B of 0.1% formic acid
in 100% acetonitrile. The flow rate was set to 0.5 ml/min and 5 µL of the sample was injected.
Background: Liver microsomes are vesicles of endoplasmic reticulum, rich in cytochrome P450 enzymes.

Setting [3] is: read-out: MIC E. coli ATCC 25922 Wild-type.
[4] abbreviates: Klebsiella pneumoniae, ATCC13883, read-out: MIC K. pneumoniae ATCC 13883 Wild-type.
[5] abbreviates: Homo sapiens, HepG2, 72 h, read-out: HepG2 viability IC50, 72 h.
Setting [6] is: Klebsiella pneumoniae, ATCC13883, read-out: MIC K. pneumoniae ATCC 13883 In 50% human serum.
The mark [7] stands for this setting: ATCC 25922 (Table S4), read-out: MIC E. coli EN0001.

Molecules are shown by their SMILES. Values after ≈ are worked out from the molar mass of the structure shown. Read-outs that look alike come from different tables or passages of the source.

The MIC is the lowest concentration found to suppress growth. One may read the IC50 as the concentration needed to halve the response being measured. For the molecule `CC(=O)N1CCc2cc(S(=O)(=O)N3CCN(c4cccc(C(F)(F)F)c4)CC3)ccc21` [AZ1, reference compound], the MIC in the data set on E. coli ATCC 25922 (setting [3]) and with K. pneumoniae ATCC 13883 (setting [4]) was greater than 64 µg/mL throughout. Besides, in data set [1], the “MIC E. coli ATCC 25922 ΔtolC efflux mutant” value worked out at 2 µg/mL (≈ 4.41 µM). In the data set “in vitro”, this molecule came in with a hemolysis of 2.1%. Besides, the IC50 with HepG2 cells (setting [5]) is 22.5 µM.

The term microsomal CLint denotes a measure of how fast metabolising enzymes remove a compound, apart from limits set by blood flow. A lower microsomal CLint goes with greater metabolic stability. Turning to `CN(c1ccc(CNCCN)cc1C(=O)Nc1ccc(S(=O)(=O)N2CCN(c3cc(Cl)cc(Cl)c3)CC2)cc1)S(C)(=O)=O` [EBL-3025], the minimal inhibitory concentration (MIC) with E. coli ATCC 25922 (setting [3]) was determined as 1 µg/mL (≈ 1.49 µM); in the data set on K. pneumoniae ATCC 13883 (setting [6]) it was 0.5 µg/mL (≈ 0.747 µM); with K. pneumoniae ATCC 13883 (setting [4]) it was 0.5 µg/mL (≈ 0.747 µM). Moreover, the “MIC E. coli ATCC 25922 ΔtolC efflux mutant” value in data set [1] is no more than 0.125 µg/mL. The molecule also had a hemolysis in the data set “in vitro” of 1.98%. Besides, in the data set with HepG2 cells (setting [5]), the IC50 turned out to be 49 µM. Also, in data set [2], the intrinsic clearance (microsomal CLint) at 1 µM is 31 µL/min/mg.

As for `Cc1cc(C#N)nc(N2CCN(S(=O)(=O)c3ccc(NC(=O)c4ccccc4N(C)S(C)(=O)=O)cc3)CC2)n1` [EBL-3339], the results for the MIC in the data set with E. coli ATCC 25922 (setting [3]), in the data set with K. pneumoniae ATCC 13883 (setting [6]) and with K. pneumoniae ATCC 13883 (setting [4]) were 1 µg/mL (≈ 1.76 µM), 2 µg/mL (≈ 3.51 µM) and 0.5 µg/mL (≈ 0.878 µM), respectively. Further, in data set [1], the “MIC E. coli ATCC 25922 ΔtolC efflux mutant” value was no more than 0.125 µg/mL. The molecule also returned a hemolysis in the data set “in vitro” of 0.05%. Also, in the data set with HepG2 cells (setting [5]), the IC50 is 29 µM. Besides, in data set [2], the microsomal CLint at 1 µM was found to be 625 µL/min/mg.

Consider `Cc1cc(C#N)nc(N2CCN(S(=O)(=O)c3ccc(NC(=O)c4cc(CNCCCN)ccc4N(C)S(C)(=O)=O)cc3)CC2)n1.Cl.Cl` [EBL-3599], for which the MIC in the data set on E. coli ATCC 25922 (setting [7]) was found to be 2 µg/mL; with E. coli ATCC 25922 (setting [3]), 2 µg/mL; in the data set with K. pneumoniae ATCC 13883 (Klebsiella pneumoniae, ATCC13883; read-out: MIC K. pneumoniae ATCC 13883 In 50% human serum) it was 0.25 µg/mL; with K. pneumoniae ATCC 13883 (Klebsiella pneumoniae, ATCC13883; read-out: MIC K. pneumoniae ATCC 13883 Wild-type), 1 µg/mL. In addition, in data set [1], the “MIC E. coli ATCC 25922 ΔtolC efflux mutant” value was no more than 0.125 µg/mL. The same molecule had a hemolysis in the data set “in vitro” of 0.06%. In the data set on HepG2 cells (Homo sapiens, HepG2, 72 h, read-out: HepG2 viability IC50), the IC50 stood at 55 µM. In data set [2], this molecule gave a microsomal CLint at 1 µM of less than 5 µL/min/mg.

In the case of `Cc1cc(C#N)nc(N2CCN(S(=O)(=O)c3ccc(NC(=O)c4cc(CN5CC(CN)C5)ccc4N(C)S(C)(=O)=O)cc3)CC2)n1` [EBL-3647], the MIC with E. coli ATCC 25922 (setting [7]) is 2 µg/mL (≈ 2.99 µM); with E. coli ATCC 25922 (setting [3]), 2 µg/mL (≈ 2.99 µM); with K. pneumoniae ATCC 13883 (setting [6]) it was 0.25 µg/mL (≈ 0.374 µM); in the data set on K. pneumoniae ATCC 13883 (setting [4]), 0.5 µg/mL (≈ 0.749 µM). In data set [1], the “MIC E. coli ATCC 25922 ΔtolC efflux mutant” value was no more than 0.125 µg/mL. The same molecule displayed a hemolysis in “in vitro” of 0.13%. In the data set on HepG2 cells (setting [5]), the IC50 worked out at 54 µM. In data set [2], this molecule displayed a microsomal CLint at 1 µM of less than 5 µL/min/mg.

For the molecule `CN(c1ccccc1C(=O)Nc1ccc(S(=O)(=O)N2CCCCC2)cc1)S(C)(=O)=O` [JEDI-852], the minimal inhibitory concentration (MIC) with E. coli ATCC 25922 (setting [3]) and in the data set on K. pneumoniae ATCC 13883 (setting [4]) was greater than 64 µg/mL throughout. Also, the “MIC E. coli ATCC 25922 ΔtolC efflux mutant” value in data set [1] was determined as 4 µg/mL (≈ 8.86 µM). The molecule also yielded a hemolysis in “in vitro” of 0.03%. For the same molecule, the half-inhibitory concentration (IC50) with HepG2 cells (setting [5]) is greater than 32 µM; with HepG2 cells (read-out: HepG2 viability IC50, 72 h), greater than 64 µM.

Take `CN(c1ccccc1C(=O)Nc1ccc(S(=O)(=O)N2CCN(c3cccc(C(F)(F)F)c3)CC2)cc1)S(C)(=O)=O` [JEDI-1444]: the MIC in the data set with E. coli ATCC 25922 (setting [3]) was 2 µg/mL (≈ 3.35 µM); in the data set with K. pneumoniae ATCC 13883 (setting [6]), 32 µg/mL (≈ 53.6 µM); in the data set on K. pneumoniae ATCC 13883 (setting [4]), 2 µg/mL (≈ 3.35 µM). Moreover, in data set [1], the “MIC E. coli ATCC 25922 ΔtolC efflux mutant” value is no more than 0.125 µg/mL. For the same molecule, the hemolysis in “in vitro” came out at 0.02%. In addition, the half-inhibitory concentration (IC50) with HepG2 cells (setting [5]) is greater than 64 µM. In data set [2], the microsomal CLint at 1 µM worked out at 126 µL/min/mg.
